Measured values from paper PMC9749988 (PLOS ONE, 2022).
Like-named read-outs stand apart in the source and are kept apart here.

Assays:
A1R = target: T1, A1R (Mus musculus, UniProt Q60612); assay type: binding; conditions: mean ± SEM, read-out: DPCPX equilibrium dissociation constant (KD)
T1 construct: To obtain the P1 fraction, cerebral cortex and spinal cord were homogenized in chilled sucrose; from tissue; host or cells: cerebral cortex and spinal cord membranes (P1 fraction) of SOD1-G93A transgenic and WT B6SJL mice
T1 sequence (Q60612 1-326): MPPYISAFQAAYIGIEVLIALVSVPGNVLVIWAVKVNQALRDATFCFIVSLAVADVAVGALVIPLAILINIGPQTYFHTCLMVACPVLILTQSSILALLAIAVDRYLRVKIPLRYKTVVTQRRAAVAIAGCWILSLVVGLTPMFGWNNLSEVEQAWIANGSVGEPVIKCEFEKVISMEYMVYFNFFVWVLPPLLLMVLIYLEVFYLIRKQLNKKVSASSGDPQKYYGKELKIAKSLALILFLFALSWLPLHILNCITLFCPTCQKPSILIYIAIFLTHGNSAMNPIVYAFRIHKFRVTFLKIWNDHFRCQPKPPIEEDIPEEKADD
Experimental: The radioligand-binding experiments were performed as previously described with membrane fractions (total membranes, P1 fraction). To obtain the P1 fraction, cerebral cortex and spinal cord were homogenized in chilled sucrose (pH 7.6), centrifuged at 3000 g, the pellet discarded, and the supernatant centrifuged at 14000 g (P1 fraction). The P1 fraction was then resuspended in sucrose (pH 7.6). Protein quantification was done with DC™ Protein Assay kit (Bio-Rad Laboratories, CA, USA), with bovine serum albumin (BSA) as the reference standard. […] Non-specific binding was measured in the presence of 2 μM of Xanthine Amine Congener (XAC, Tocris Bioscience, Bristol, United Kingdom), and the resulting values were subtracted from those obtained with [^3H]DPCPX to determine the specific binding and normalized for protein concentration. Results are expressed as femtomole per mg of total protein (fmol/mg).

VEGFB = VEGFB protein levels by ELISA after chronic caffeine treatment; assay type: in vivo, mouse; conditions: caffeine 0.3mg/ml in drinking water from 11 weeks, mean ± SEM
Experimental: (§1) Cortex and spinal cord samples were homogenized in […] (RIPA) lysis buffer (1M Tris pH 8.0, 0.5M EDTA pH 8.0, 5M NaCl, 10% NP-40, 50% Glycerol), supplemented with cOmpleteTM Mini protease inhibitor cocktail tablets (Roche, Penzberg, Germany) and centrifuged. Protein quantification was performed using the DC™ Protein Assay kit (Bio-Rad Laboratories, Hercules, CA, USA). VEGFA, VEGFR-1 and VEGFR-2 protein levels were quantified with the DuoSet® ELISA Development System Kit (R&D Systems, Abingdon, UK), according to manufacturer instructions. Assessment of VEGFB protein levels was performed with the Mouse VEGFB ELISA Kit (Thermo Scientific, Massachusetts, USA), also according to manufacturer instructions. […] To improve BDNF detection, samples were acidified with HCl 1M, until reaching approximately pH 2.6. After 10 to 20 minutes, NaOH was added to neutralize the samples to pH 7.6. Absorbances were read in a microplate reader (Microplate Reader TECAN Infinite M200, Männedorf, Switzerland) at 450nm and 540nm, with the latter being subtracted to the former with the goal of correcting for differences in plate background. Results are expressed as picograms per milligram of total protein (pg/mg).
(§2) During the experimental period, animals had ad libitum access to water, independently of treatment group. […] After 5–7 weeks of treatment, mice were sacrificed, cortex and spinal cord samples were removed and snap frozen in liquid nitrogen. All samples were kept at -80°C for posterior analysis.

[1] = Changes in animal body weight during chronic caffeine treatment (AUC of weight change); assay type: in vivo, mouse; conditions: for Area under the curve (AUC) of change in body weight: caffeine 0.3mg/ml in drinking water from 11th to 16-18th week of age, weight change vs first day of administration (PND 72), mean ± SEM; for Weight gain compared to vehicle treatment: caffeine 0.3mg/ml in drinking water
Experimental: as §2
Animal body weight was monitored throughout the chronic drug administration experiments, with animals being weighed once every 2 to 3 days. We used weight changes a proxy of the disease state, as it was described that SOD1^G93A mice show a gradual loss of weight through time, and that these correlate with other disease states indicators. We decided not to use behavioral data (eg RotaRod performance) to avoid changes in protein levels or expression due to physical exercise, which would have even more impact in SOD1^G93A mice than in WT, thus introducing an additional variable and therefore making comparisons more difficult.
Because SOD1^G93A tend to generally weight less than their WT counterparts, group comparisons of absolute weight were deemed inadequate. As such, changes in the body weight of each animal were calculated by subtracting the weight of that animal on the first day of drug administration (72nd day of life) to its weight at each subsequent time-point, with results being expressed in grams. To facilitate comparison of treatment effects, the area under the curve (AUC) of these changes in weight was obtained.

BDNF = BDNF protein levels by ELISA after chronic caffeine treatment; assay type: in vivo, mouse; conditions: caffeine 0.3mg/ml in drinking water from 11 weeks, mean ± SEM
Experimental: as §1, §2

SOD1^G93A mice [2] = conditions: cited from earlier work
VEGFA = VEGFA protein levels by ELISA after chronic caffeine treatment; assay type: in vivo, mouse; conditions: for VEGFA protein levels: caffeine 0.3mg/ml in drinking water from 11 weeks, mean ± SEM
Experimental: as §1, §2

VEGFR-1 = VEGFR-1 protein levels by ELISA after chronic caffeine treatment; assay type: in vivo, mouse; conditions: caffeine 0.3mg/ml in drinking water from 11 weeks, mean ± SEM
Experimental: as §1, §2

SOD1^G93A mice [3] = conditions: caffeine 0.3mg/ml in drinking water from 11th week of age
VEGFR-2 = VEGFR-2 protein levels by ELISA after chronic caffeine treatment; assay type: in vivo, mouse; conditions: caffeine 0.3mg/ml in drinking water from 11 weeks, mean ± SEM
Experimental: as §1
After 5–7 weeks of treatment, mice were sacrificed, cortex and spinal cord samples were removed and snap frozen in liquid nitrogen. All samples were kept at -80°C for posterior analysis.

[4] = Water intake during chronic caffeine treatment; assay type: in vivo; conditions: WT and SOD1^G93A mice; tap water or caffeine (0.3mg/ml); approximately 5–6 mL per day per mouse
Experimental: as §2

CCCn1c(=O)c2[nH]c(C3CCCC3)nc2n(CCC)c1=O [DPCPX, [^3H]-8-Cyclopentyl-1,3-dipropylxanyine]
Kd (A1R; cortex, WT mice age-matched to pre-symptomatic (4–6 weeks old)): 3.1 ± 1.55 nM
Kd (A1R; cortex, WT mice age-matched to symptomatic (12–14 weeks old)): 7.98 ± 1.01 nM
Kd (A1R; cortex, pre-symptomatic SOD1^G93A mice (4–6 weeks old)): 4.97 ± 1.07 nM
Kd (A1R; cortex, symptomatic SOD1^G93A mice (12–14 weeks old)): 4.43 ± 0.821 nM
Kd (A1R; spinal cord, WT mice age-matched to pre-symptomatic (4–6 weeks old)): 15 ± 3.83 nM
Kd (A1R; spinal cord, WT mice age-matched to symptomatic (12–14 weeks old)): 4.32 ± 0.924 nM
Kd (A1R; spinal cord, pre-symptomatic SOD1^G93A mice (4–6 weeks old)): 12 ± 4.55 nM
Kd (A1R; spinal cord, symptomatic SOD1^G93A mice (12–14 weeks old)): 11.1 ± 3.47 nM

Cn1c(=O)c2c(ncn2C)n(C)c1=O [caffeine]
VEGFB protein levels (VEGFB; cortex, SOD1^G93A mice 16–18 weeks old, SOD-VEH 164.7 ± 10.79): 157.8 ± 13.94 pg/mg protein
VEGFB protein levels (VEGFB; cortex, WT mice 16–18 weeks old, WT-VEH 166.8 ± 20.91): 170.7 ± 33.07 pg/mg protein
VEGFB protein levels (VEGFB; spinal cord, SOD1^G93A mice 16–18 weeks old, SOD-VEH 545.6 ± 35.13): 545.3 ± 55.72 pg/mg protein
VEGFB protein levels (VEGFB; spinal cord, WT mice 16–18 weeks old, WT-VEH 366.0 ± 64.68): 366.5 ± 90.97 pg/mg protein
Area under the curve (AUC) of change in body weight ([1]; SOD1^G93A mice, SOD-VEH 12.90 ± 3.033): 22.70 ±3.795
Weight gain compared to vehicle treatment ([1]; SOD1^G93A mice, not statistically significant (p = 0.058)): trend towards an increase in weight gain
Area under the curve (AUC) of change in body weight ([1]; WT mice, WT-VEH 71.20 ± 2.011): 83.40 ± 4.743
Weight gain compared to vehicle treatment ([1]; WT mice, p = 0.039): small but statistically significant increase in weight gain
BDNF protein levels (BDNF; cortex, SOD1^G93A mice 16–18 weeks old, SOD-VEH 29.75 ± 4.560, p = 0.042): 13.85 ± 2.372 pg/mg protein
BDNF protein levels (BDNF; cortex, WT mice 16–18 weeks old, WT vehicle 20.96 ± 1.403, p = 0.020): 40.24 ± 6.342 pg/mg protein
BDNF protein levels (BDNF; spinal cord, SOD1^G93A mice 16–18 weeks old, SOD-VEH 19.34, p = 0.038, high variability): 49.10 ± 10.82 pg/mg protein
BDNF protein levels (BDNF; spinal cord, WT mice 16–18 weeks old): 14.37 ± 4.488 pg/mg protein
Effect on ALS symptoms (SOD1^G93A mice [2]): exacerbates ALS symptoms
Effect of caffeine upon VEGFA protein levels (VEGFA; cortex, WT and SOD1^G93A mice 16–18 weeks old, caffeine 0.3mg/ml in drinking water): absence of effect
VEGFA protein levels (VEGFA; cortex, WT mice 16–18 weeks old, WT-VEH 3.62): 2.05 ± 0.324 pg/mg protein
VEGFA protein levels (VEGFA; spinal cord, SOD1^G93A mice 16–18 weeks old, SOD-VEH 4.151 ± 0.820): 3.743 ± 1.018 pg/mg protein
VEGFA protein levels (VEGFA; spinal cord, WT mice 16–18 weeks old, WT-VEH 2.798): 3.774 ± 0.451 pg/mg protein
VEGFR-1 protein levels (VEGFR-1; cortex, SOD1^G93A mice 16–18 weeks old, SOD-VEH 905.1 ± 30.64): 926.5 ± 89.92 pg/mg protein
VEGFR-1 protein levels (VEGFR-1; cortex, WT mice 16–18 weeks old, WT-VEH 1078 ± 90.79): 1004 ± 146.9 pg/mg protein
VEGFR-1 protein levels (VEGFR-1; spinal cord, SOD1^G93A mice 16–18 weeks old, SOD-VEH 919.3 ± 50.34): 1048 ± 115.2 pg/mg protein
Symptoms on visual inspection (SOD1^G93A mice [3]): trend to symptoms aggravation
Time to humane endpoint (onset of hindlimb paresis) vs vehicle treated SOD1^G93A mice (SOD1^G93A mice [3]): slightly earlier
VEGFR-2 protein levels (VEGFR-2; cortex, SOD1^G93A mice 16–18 weeks old, SOD-VEH 45.41 ± 5.938): 50.51 ± 6.925 pg/mg protein
VEGFR-2 protein levels (VEGFR-2; cortex, WT mice 16–18 weeks old, WT-VEH 45.14 ± 4.019): 39.02 ± 4.077 pg/mg protein
VEGFR-2 protein levels (VEGFR-2; spinal cord, WT mice 16–18 weeks old, WT-VEH 108 ± 32.5): 121 ± 40.6 pg/mg protein
Water intake, difference between treatment groups [4]: No substantial differences
